{"source": "patent US9839614B2", "about": "“Nanoparticle and polymer formulations for thyroid hormone analogs, antagonists, and formulations and uses thereof” (NANOPHARMACEUTICALS LLC, priority 2009, dated 2017)", "key": {"[1]": {"system": "Human medullary carcinoma of the thyroid (MTC) cells", "assay": "Tumor growth and angiogenesis in the CAM cancer implant model", "type": "in vivo, chick", "conditions": "1 μg/CAM, 8 days, n=8", "description": "Penicillin streptomycin (1%) was present in both culture media. […] Water and food were provided ad libitum."}, "[2]": {"system": "GL261 murine brain tumor cells", "assay": "GL261 single dose 250 kVp x-ray survival (SHMT and LQ analysis)", "type": "cell-based", "protocol": "To irradiate 25 cm^2 flasks, an x-ray machine was used and (Philips 250 kVp Therapeutic X-ray Machine, Einhoven, […]) operated at 250 kVp and 15 mA with added filtration of 0.4 mm Thoreaus filter. The target to source distance was approximately 30 cm. Dose rates were measured using an R-meter (Victoreen R-meter, Cleveland, Ohio), and converted to absorbed (Gy) doses using appropriate temperature, pressure, and R to Gy conversion factors. The dose rate was 1 Gy per min. Flasks were irradiated at ambient temperature.\nFor […] analyses, survival data lying at or below 36.8% survival were analyzed by using the log fractional survival (log FxS) versus dose (D). Data were fit using linear regression analysis (SigmaPlot, V. 10, Systat Corp., Point Richmond, Calif.) to obtain the Y-intercept (or n, the extrapolation number) and the slope (1/D0), and their 95% confidence limits. (See Goldstein, A. In: Biostatistics, New York, The MacMillan Co., 1964, p. 140-146). The D0 value (Gy) is defined as the inverse of the slope, and the corrected Dq value (Gy) was then defined using the relationship: Dq(Gy)=ln n×D0(Gy) The 95% confidence limits on Dq were defined using error propagation. (See Chase, et al., In: Principles of Radioisotope Methodology. Minneapolis, Minn. Burgess Publ. Co., 1962, p. 68, 87-90). Statistics: LQ Analysis\nFor LQ analyses, data lying between a fractional survival of 1.00 and 0.05 were used. The fractional survival data at each dose were transformed using the relationship (−ln F×S/D) and plotted against dose (D). A regression analysis was performed to yield the LQ equation along with their 95% confidence limit values using a t-table with the appropriate (N−1) degrees of freedom. (See Goldstein, A. In: Biostatistics, New York, The MacMillan Co., 1964, p. 140-146).\nTo determine the tetrac modification factor (TMF), the survival at 2 Gy obtained for control cells was divided by the survival at 2 Gy for tetrac treated cells. The 95% confidence limits on the ratio were determined using error propagation techniques. (See Chase, et al. In: Princiiples of Radioisotope Methodology, Minneapolis, Minn., Burgress Publ. Co., 1962, p. 68, 87-90)."}, "[3]": {"system": "P-gp, GST and SOD in MCF7/R cells", "assay": "Western blot of drug resistance genes", "type": "cell-based", "conditions": "24 h", "protocol": "FIG. 15A is a Western blot showing the expression of P-gp, GST and SOD in wild type (W) drug sensitive and resistant (R) MCF7 cells.\nThe cells were treated for 24 h with each drug alone or the combination of both, after that, expression of drug resistance molecules was determined by Western blot using specific antibodies."}, "[4]": {"system": "MDA-MB-231 cells gene expression", "assay": "RNA microarray of MDA-MB-231 cells (Example 17)", "type": "cell-based, human", "conditions": "24 h", "protocol": "Expression of ˜54,000 transcripts was analyzed in control and drug-treated cultures, using Affymetrix Human Genome U133 plus 2.0 microarrays. Subsequent analysis was focused on genes affected by treatment at p<0.01. There was 93% concordance between Tetrac and Tetrac NP in terms of genes affected; notable disparities included downregulation of epidermal growth factor receptor (EGFR) by Tetrac NP and no affect of unmodified Tetrac on this gene."}, "[5]": {"system": "GL261 murine brain tumor cells", "assay": "GL261 sublethal damage repair (SLDR), split dose", "type": "cell-based", "protocol": "SLDR was measured at 10% immediate survival level as determined from the acute single dose curve for both control and Tetrac-treated cells in both growth states (i.e. exponentially growing and plateau phase cells. Flasks were irradiated with one-half of the total dose and returned to the 37° C. incubator. At increasing periods of time, flasks were removed, and given the second half of the immediate 10% survival dose. Survival was measured at 0, 0.5, 1.0, 1.5, 2.0, 3.0, 4.0, 6.0, 8.0, and 10.0 hours after the initial dose.\nTo investigate the effects of tetrac on SLDR and PLDR, cells were chosen that had been given a one-hour treatment with tetrac at two different times, i.e., at 70 and 270 hours post-seeding)."}, "[6]": {"system": "doxorubicin-resistant MCF7/R tumors", "assay": "Doxorubicin-resistant tumors in nude mice", "type": "in vivo", "protocol": "Mice were injected with doxorubicin-resistant MCF7/R cells (10^6) and after 10 days, they were assigned into groups of seven mice each and challenged with doxorubicin (2 mg/kg) or Tetrac (30 mg/kg) either alone or in combination. Tumor volume was measured every 3 days for up to three weeks."}, "SKN-SH/R cells": {"system": "SKN-SH/R cells", "assay": "Senescence and apoptosis in drug resistant cells", "type": "cell-based", "conditions": "24 h", "protocol": "In FIG. 16A, SKN-SH/R cells were subjected to treatment doxorubicin (Dox) alone, Tetrac alone, or the combination of both for 24 h. Expression of p21/WAF1, cleaved caspase-3 (Cl-Casp-3) and beta action were measured by Western blot using specific antibodies.\nFIG. 16B discloses the cells were seeded in 24 well plates and treated as mentioned above and expression of the senescence associated beta galactosidase (SA-β-Gal.) was assayed as described in the methods section.\nFIG. 16C discloses the cells were seeded on cover slips and treated with the drugs as above for 24 h, after which they were fixed and stained with Hoechst and the percentage of positive cells graphed. The data represent average of 3 determinations±SE."}, "[7]": {"conditions": "Exponential phase (with Tetrac)"}, "[8]": {"conditions": "Unfed plateau Phase (with Tetrac)"}}, "note": "Where “and” joins values, the source holds several entries; their conditions need not be identical. Equal values may be shown once."}
{"smiles": "O=C(O)Cc1cc(I)c(Oc2cc(I)c(O)c(I)c2)c(I)c1", "note": "[Tetrac, tetraiodothyroacetic acid]", "values": [{"measurement": "tumor growth", "setting": "[1]", "result": "effective inhibition"}, {"measurement": "tumor-mediated angiogenesis", "setting": "[1]", "result": "significant inhibition"}, {"measurement": "SF2 (survival at 2 Gy)", "setting": "[2]; Exponential Phase (with Tetrac), 95% confidence limits in parentheses", "result": "14.2 (10.8-18.8) %"}, {"measurement": "SHMT n", "setting": "[2]; Exponential phase (with Tetrac 2 μM, 1 h)", "result": 1.06}, {"measurement": "LQ α (Gy^−1)", "setting": "[2]; [7]", "result": 0.930, "unit": "Gy^−1"}, {"measurement": "LQ β (Gy^−2)", "setting": "[2]; [7]", "result": 0.003, "unit": "Gy^−2"}, {"measurement": "SHMT D0 (Gy)", "setting": "[2]; [7]", "result": "1.08 Gy and 1.08 (0.09). Gy"}, {"measurement": "sensitization of hypoxic or oxic cells", "setting": "[2]; Tetrac 2 μM", "result": "sensitize both oxic and hypoxic cells equally"}, {"measurement": "LQ α (Gy^−1)", "setting": "[2]; [8]", "result": 1.157, "unit": "Gy^−1"}, {"measurement": "LQ β (Gy^−2)", "setting": "[2]; [8]", "result": 0.066, "unit": "Gy^−2"}, {"measurement": "SF2 (survival at 2 Gy)", "setting": "[2]; [8]", "result": 7.6, "unit": "%"}, {"measurement": "SHMT D0 (Gy)", "setting": "[2]; [8]", "result": 0.75, "unit": "Gy"}, {"measurement": "SHMT Dq (Gy)", "setting": "[2]; [8]", "result": 0.00, "unit": "Gy"}, {"measurement": "SHMT n", "setting": "[2]; [8]", "result": 1.04}, {"measurement": "increase of D0", "setting": "[2]; exponentially growing cells", "result": 15, "unit": "%"}, {"measurement": "reduction of Dq", "setting": "[2]; exponentially growing cells", "result": 100, "unit": "%"}, {"measurement": "reduction of extrapolation number n", "setting": "[2]; exponentially growing cells", "result": 93, "unit": "%"}, {"measurement": "survival of Tetrac treated cells at 2 Gy", "setting": "[2]; non-Tetrac treated cells 32% (FIG. 57)", "result": 13, "unit": "%"}, {"measurement": "reduction of D0", "setting": "[2]; plateau phase cells", "result": 6, "unit": "%"}, {"measurement": "reduction of Dq", "setting": "[2]; plateau phase cells", "result": 100, "unit": "%"}, {"measurement": "expression of P-glycoprotein, SOD, and GST-π", "setting": "[3]", "result": "none of these genes was significantly altered"}, {"measurement": "Change: CDKN2C", "setting": "[4]; 10^−7M (Tetrac equivalent), hormone-stripped serum", "result": "↑"}, {"measurement": "Change: BCL2L14", "setting": "[4]; 10^−7M", "result": "↑"}, {"measurement": "Change: CASP2", "setting": "[4]; 10^−7M", "result": "↑"}, {"measurement": "Change: CBY1", "setting": "[4]; 10^−7M", "result": "↑"}, {"measurement": "Change: CTNNA1", "setting": "[4]; 10^−7M", "result": "↓"}, {"measurement": "Change: CTNNA2", "setting": "[4]; 10^−7M", "result": "↓"}, {"measurement": "Change: CTSL1", "setting": "[4]; 10^−7M", "result": "↓"}, {"measurement": "Change: CXCL10", "setting": "[4]; 10^−7M", "result": "↑"}, {"measurement": "Change: Cyclins", "setting": "[4]; 10^−7M", "result": "↓"}, {"measurement": "Change: EDN1", "setting": "[4]; 10^−7M", "result": "↑"}, {"measurement": "Change: Interleukins", "setting": "[4]; 10^−7M", "result": "↓"}, {"measurement": "Change: MCL1", "setting": "[4]; 10^−7M", "result": "↓"}, {"measurement": "Change: NR1D1", "setting": "[4]; 10^−7M", "result": "↓"}, {"measurement": "Change: THBS1", "setting": "[4]; 10^−7M", "result": "↑"}, {"measurement": "Change: XIAP", "setting": "[4]; 10^−7M", "result": "↓"}, {"measurement": "epidermal growth factor receptor (EGFR) expression", "setting": "[4]; 10^−7M", "result": "no affect"}, {"measurement": "cellular repair of x-ray damage (FIG. 58)", "setting": "[5]; Tetrac 2 uM, 6 to 8 hours post-irradiation", "result": "no repair of x-ray damage"}, {"measurement": "SLDR recovery ratio", "setting": "[5]; exponential Tetrac-treated cells, 2 hours after the first dose", "result": 1.8}, {"measurement": "factor of reduction of SLDR", "setting": "[5]; exponential cells", "result": 1.8}, {"measurement": "factor of decrease in cellular repair", "setting": "[5]; plateau phase cells, three hours post-irradiation", "result": "~3"}, {"measurement": "survival relative to survival at 0 hours", "setting": "[5]; plateau phase, 3 hours after the initial dose", "result": "approximately 36%"}, {"measurement": "growth of drug resistant tumors", "setting": "[6]; Tetrac 30 mg/kg", "result": "effective in suppressing the growth of drug resistant tumors"}, {"measurement": "toxic effect", "setting": "[6]; Tetrac 30 mg/kg", "result": "without any noticeable toxic effect"}, {"measurement": "doxorubicin-sensitivity in vivo", "setting": "[6]; Tetrac with doxorubicin 2 mg/kg", "result": "not restored"}, {"measurement": "doxorubicin-induced proliferation arrest, SA-β-Gal and cell death", "setting": "SKN-SH/R cells", "result": "dramatically enhanced"}]}
